The values below are quoted from earlier work in US6191124A, “Methanol derivatives for treatment of retroviral infections especially HIV infections” (priority 1997, dated 2001).

One series deals with HIV infection / AIDS. The following applies: cited from earlier work.
The subject of series [1] is viral reverse transcriptase. The following applies: cited from earlier work.
A further series has as its system HIV. The following applies: cited from earlier work.
The next series relates to hepatic glycolysis. The following applies: cited from earlier work.
The conditions of series [2]: in vivo; cited from earlier work.

For `Cc1cn([C@H]2C[C@H](N=[N+]=[N-])[C@@H](CO)O2)c(=O)[nH]c1=O` [AZT, 3'-azido-3'-deoxy-thymidine], the “decrease of mortality and frequency of opportunistic infections” value in the series on HIV infection / AIDS was “shown to decrease the morality and frequency of opportunistic infections associated with AIDS”. Besides, the “inhibition of viral reverse transcriptase” value in series [1] is “known inhibitor of viral reverse transcriptase”.

`O=c1[nH]cnc2c1ncn2[C@H]1CC[C@@H](CO)O1` [ddI]: the “activity against HIV in vitro” value with HIV is “potent activity against HIV in vitro”. For the same molecule, the “stimulation of hepatic glycolysis” value in the series with hepatic glycolysis is “shown to stimulate hepatic glycolysis leading to irreversible liver damage”. The limiting toxicity result in series [2] was “peripheral neuropathy and pancreatitis”.
